Data: ChEMBL document CHEMBL3352638, “Improving the MDR reversal activity of 6,17-epoxylathyrane diterpenes” (Bioorg Med Chem, 2014)

What was measured:
L5178Y [1] = experiment: Antiproliferative activity against mouse L5178Y cells after 72 hrs by MTT assay; type: functional, cell-based
L5178Y [2] = experiment: Antiproliferative activity against human MDR1 transfected mouse L5178Y cells after 48 hrs by MTT assay in presence of doxorubicin; type: functional
[3] = molecular target: T1, ATP-dependent translocase ABCB1 (Homo sapiens, UniProt P08183); experiment: Inhibition of human MDR1 expressed in mouse L5178Y cells assessed as Rhodamine-123 accumulation measured as fluorescence activity at 20 uM after 20 mins by flow cytometry relative to control; type: cell-based
L5178Y [4] = experiment: Antiproliferative activity against human MDR1 transfected mouse L5178Y cells after 72 hrs by MTT assay; type: functional, cell-based
[5] = molecular target: T1, ATP-dependent translocase ABCB1; experiment: Inhibition of human MDR1 expressed in mouse L5178Y cells assessed as Rhodamine-123 accumulation measured as fluorescence activity at 80 uM after 20 mins by flow cytometry relative to control; type: cell-based
[6] = molecular target: T1, ATP-dependent translocase ABCB1; experiment: Inhibition of verapamil-stimulated vanadate-sensitive ATPase activity of human MDR1 expressed in Sf9 membrane vesicles assessed as inorganic phosphate production at 2 to 100 uM after 10 mins by colorimetry; type: cell membranes; conditions: sf9, 10 min
[7] = molecular target: T1, ATP-dependent translocase ABCB1; experiment: Inhibition of human MDR1 expressed in mouse L5178Y cells assessed as Rhodamine-123 accumulation measured as fluorescence activity at 40 uM after 20 mins by flow cytometry relative to control; type: cell-based
[8] = molecular target: T1, ATP-dependent translocase ABCB1; experiment: Inhibition of human MDR1 expressed in mouse L5178Y cells assessed as Rhodamine-123 accumulation after 20 mins by flow cytometry; type: cell-based
[9] = molecular target: T1, ATP-dependent translocase ABCB1; experiment: Stimulation of vanadate-sensitive ATPase activity of human MDR1 expressed in Sf9 membrane vesicles assessed as inorganic phosphate production at 2 to 100 uM after 10 mins by colorimetry; type: cell membranes; conditions: sf9, 10 min
[10] = molecular target: T1, ATP-dependent translocase ABCB1; experiment: Inhibition of human MDR1 expressed in mouse L5178Y cells assessed as Rhodamine-123 accumulation measured as fluorescence activity at 2 uM after 20 mins by flow cytometry relative to control; type: cell-based

T1 sequence (P08183 whole entry): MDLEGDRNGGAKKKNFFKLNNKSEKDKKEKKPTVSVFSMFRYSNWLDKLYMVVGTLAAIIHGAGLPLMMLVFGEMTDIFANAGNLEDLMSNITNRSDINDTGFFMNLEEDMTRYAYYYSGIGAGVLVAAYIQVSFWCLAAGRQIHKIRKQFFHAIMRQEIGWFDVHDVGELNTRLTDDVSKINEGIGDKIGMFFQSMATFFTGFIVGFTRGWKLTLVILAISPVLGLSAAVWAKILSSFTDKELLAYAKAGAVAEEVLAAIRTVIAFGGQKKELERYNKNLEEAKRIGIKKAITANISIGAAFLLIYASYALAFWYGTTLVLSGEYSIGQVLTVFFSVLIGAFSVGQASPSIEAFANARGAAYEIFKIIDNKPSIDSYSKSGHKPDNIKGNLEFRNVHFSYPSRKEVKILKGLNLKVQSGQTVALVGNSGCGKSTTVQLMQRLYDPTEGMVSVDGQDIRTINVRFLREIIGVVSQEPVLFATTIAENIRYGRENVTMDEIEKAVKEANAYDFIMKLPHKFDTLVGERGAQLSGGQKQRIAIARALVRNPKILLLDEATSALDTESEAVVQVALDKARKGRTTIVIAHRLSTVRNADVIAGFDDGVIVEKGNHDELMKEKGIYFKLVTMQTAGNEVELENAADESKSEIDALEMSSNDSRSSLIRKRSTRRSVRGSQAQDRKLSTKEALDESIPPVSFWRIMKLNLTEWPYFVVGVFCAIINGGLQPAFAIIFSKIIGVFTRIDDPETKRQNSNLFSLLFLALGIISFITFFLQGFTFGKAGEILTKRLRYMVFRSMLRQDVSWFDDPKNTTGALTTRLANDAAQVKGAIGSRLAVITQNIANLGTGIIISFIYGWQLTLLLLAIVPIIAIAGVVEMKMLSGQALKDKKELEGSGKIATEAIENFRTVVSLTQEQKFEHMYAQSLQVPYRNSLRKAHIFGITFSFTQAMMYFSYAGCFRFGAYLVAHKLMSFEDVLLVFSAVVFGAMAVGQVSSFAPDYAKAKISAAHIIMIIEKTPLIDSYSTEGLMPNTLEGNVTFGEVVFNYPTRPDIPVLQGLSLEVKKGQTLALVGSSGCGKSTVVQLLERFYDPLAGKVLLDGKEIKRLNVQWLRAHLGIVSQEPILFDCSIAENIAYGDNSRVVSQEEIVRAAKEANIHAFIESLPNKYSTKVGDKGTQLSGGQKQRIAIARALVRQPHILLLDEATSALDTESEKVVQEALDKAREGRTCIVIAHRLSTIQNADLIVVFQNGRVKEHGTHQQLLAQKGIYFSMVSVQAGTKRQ

Structure (SMILES) | IC50 (L5178Y [1]) [µM] | CI (L5178Y [2]) | Ratio [3] | IC50 (L5178Y [4]) [µM] | Ratio [5] | inhibition (INH) [6] | Ratio [7] | inhibition (INH) [8] | Activity [9] | Ratio [10]
CC(=O)O[C@@H]1[C@@H]2[C@@H](OC(C)=O)[C@]3(CC[C@H]4[C@@H](/C=C(\C)C(=O)[C@@]2(OC(C)=O)C[C@@H]1C)C4(C)C)CO3 | 79.3 | 0.24 | 1 | 93.5 | 35 | – | – | – | – | –
CC(=O)O[C@@H]1[C@H]2[C@@H](OC(=O)CC(C)C)[C@@H](C)C[C@]2(OC(C)=O)C(=O)/C(C)=C/[C@@H]2[C@H](CC[C@]13CO3)C2(C)C | 66.8 | 0.43 | 7.8 | 92.5 | 22.6 | – | – | – | – | –
CCC(=O)O[C@@H]1[C@@H]2[C@@H](OC(C)=O)[C@]3(CC[C@H]4[C@@H](/C=C(\C)C(=O)[C@@]2(OC(C)=O)C[C@@H]1C)C4(C)C)CO3 | 41.6 | 0.05 | 1 | 43 | 58.6 | – | – | – | – | –
CCCC(=O)O[C@@H]1[C@@H]2[C@@H](OC(C)=O)[C@]3(CC[C@H]4[C@@H](/C=C(\C)C(=O)[C@@]2(OC(C)=O)C[C@@H]1C)C4(C)C)CO3 | 46.4 | 0.2 | 74.3 | 79.4 | – | Active | 96.9 | Dose-dependent effect | Active | 8
CC(=O)O[C@@H]1[C@H]2[C@@H](OC(=O)c3ccccc3)[C@@H](C)C[C@]2(OC(C)=O)C(=O)/C(C)=C/[C@@H]2[C@H](CC[C@]13CO3)C2(C)C | 50.4 | 0.27 | 80.6 | 63.3 | – | Active | 102.9 | Dose-dependent effect | Active | 63.4
C/C1=C\[C@@H]2[C@H](CC[C@]3(CO3)[C@H](O)[C@H]3[C@@H](O)[C@@H](C)C[C@]3(O)C1=O)C2(C)C | 80.9 | 0.66 | 1.5 | 89.2 | 14.8 | – | – | – | – | –
C/C1=C\[C@@H]2[C@H](CC[C@]3(CO3)[C@H](OC(=O)c3ccc(C)cc3)[C@H]3[C@@H](OC(=O)c4ccc(C)cc4)[C@@H](C)C[C@]3(O)C1=O)C2(C)C | 36.6 | 0.29 | 26.5 | 47.5 | – | – | – | – | – | 3.3
COc1ccc(C(=O)O[C@@H]2[C@@H]3[C@@H](OC(=O)c4ccc(OC)cc4)[C@]4(CC[C@H]5[C@@H](/C=C(\C)C(=O)[C@@]3(O)C[C@@H]2C)C5(C)C)CO4)cc1 | 76 | 0.36 | 23.3 | 86.8 | – | – | – | – | – | 3
C/C1=C\[C@@H]2[C@H](CC[C@]3(CO3)[C@H](OC(=O)c3ccccc3)[C@H]3[C@@H](OC(=O)c4ccccc4)[C@@H](C)C[C@]3(O)C1=O)C2(C)C | 68 | 0.24 | 22.9 | 73.3 | – | – | – | – | – | 2
C/C1=C\[C@@H]2[C@H](CC[C@]3(CO3)[C@H](OC(=O)c3ccccc3)[C@H]3[C@@H](OC(=O)c4ccccc4)[C@@H](C)C[C@]3(OC(=O)c3ccccc3)C1=O)C2(C)C | 40.4 | 0.79 | 35.2 | 59 | – | – | – | – | – | 1.7
C/C1=C\[C@@H]2[C@H](CC[C@]3(CO3)[C@H](O)[C@H]3[C@@H](OC(=O)/C=C/c4ccccc4)[C@@H](C)C[C@]3(O)C1=O)C2(C)C | 108 | 1.4 | 7.4 | 105 | – | – | – | – | – | 3.7
C/C1=C\[C@@H]2[C@H](CC[C@]3(CO3)[C@H](OC(=O)Cc3ccccc3)[C@H]3[C@@H](OC(=O)Cc4ccccc4)[C@@H](C)C[C@]3(O)C1=O)C2(C)C | 111 | 1.38 | 73.4 | 123 | – | – | 80.8 | Dose-dependent effect | – | 3.9
CCCCC(CC)C(=O)O[C@@H]1[C@@H]2[C@@H](OC(=O)C(CC)CCCC)[C@]3(CC[C@H]4[C@@H](/C=C(\C)C(=O)[C@@]2(O)C[C@@H]1C)C4(C)C)CO3 (some centres not stated) | 37 | 0.46 | 33.2 | 46.6 | – | – | – | – | – | 5.6
CCCC(=O)O[C@@H]1[C@@H]2[C@@H](OC(=O)CCC)[C@]3(CC[C@H]4[C@@H](/C=C(\C)C(=O)[C@@]2(OC(=O)CCC)C[C@@H]1C)C4(C)C)CO3 | 56.4 | 0.33 | 83.7 | 84.4 | – | – | 98 | Dose-dependent effect | – | 1.5
